Test results published in patent publication US12649750B2, “Macrocyclic compounds, compositions, and methods of using thereof” (Sionna Therapeutics Inc., priority 2022, dated 2026).

Molecular target: T1, NBD1 (Homo sapiens, UniProt P13569)
T1 construct: Purified recombinant NBD1 was produced using previously described methods; made in house
Experiment: Aggregation analysis using differential static light scattering (DSLS), thermal stability of NBD1 (ΔTagg)
Assay type: binding
Settings: ΔTagg versus DMSO control, NBD1 0.2 mg/ml
Experimental: Example 386. Aggregation Analysis Using Differential Static Light Scattering (DSLS)
Purified recombinant NBD1 was produced using previously described methods (A. Schmidt, J. L. Mendoza, P. J. Thomas (2011) Biochemical and Biophysical Approaches to Probe CFTR Structure (365-376) M. D. Amaral, K. Kunzelmann (eds.), Cystic Fibrosis, Methods in Molecular Biology 741, Springer Science+Business Media). The effect of test compounds on thermal stability of NBD1 was evaluated by differential static light scattering (DSLS) using the Harbinger Stargazer-384 instrument (Epiphyte Three, Toronto, Canada). Test compounds were dissolved and diluted to desired concentrations in 100% DMSO. The compounds or DMSO controls (100 nL) were stamped into wells of a […] low volume optical plate (Corning Inc., Corning, NY) using the Echo 555 acoustic liquid handler (Labcyte Inc., San Jose, CA).
NBD1 protein was diluted to 0.2 mg/ml in S200 buffer (50 mM Tris-HCl, 150 mM NaCl, 5 mM MgCl2, 2 mM ATP, 2 mM DTT, pH7.6) containing 1% glycerol. 10 uL of protein solution was aliquoted into the 384-well plate harboring the test compounds and 10 uL mineral oil was overlaid onto the protein solution, using the epMotion robotic liquid handler (Eppendorf North America, Hauppauge, NY). After placing into the Stargazer instrument, the plate was heated at 1° C. per minute to 70° C. Images were captured from 25° C. to 70° C. every 0.5° C. At the end of the experiment run, instrument software integrated image files and analyzed data automatically. A […] regression curve was generated for each well, representing the increase in light scattering over time. A temperature of aggregation (Tagg) was calculated based on the inflection point of the curve. To better compare data across experiments the average Tagg for DMSO control wells was calculated and subtracted from values for wells containing compounds to obtain a “ΔTagg” value. These ΔTagg values reflect stabilizing efficacy of the compounds. As set forth in Table 2 below, an ΔTagg value less than or equal to 5° C. is marked “A”; a value above 5° C. and less than or equal to 10° C. is marked “B”; a value greater than 10° C. and less than or equal to 25° C. is marked “C”.

T1 sequence (P13569 423-646 limits assumed): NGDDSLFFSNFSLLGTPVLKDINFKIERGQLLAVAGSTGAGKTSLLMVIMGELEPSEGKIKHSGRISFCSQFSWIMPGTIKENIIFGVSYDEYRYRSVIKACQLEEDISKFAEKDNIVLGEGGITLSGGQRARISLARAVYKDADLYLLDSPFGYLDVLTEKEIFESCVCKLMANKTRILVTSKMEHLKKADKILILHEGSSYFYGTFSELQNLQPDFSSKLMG

In the case of `C[C@@H](Cc1cccc(C2CCCC(C)(C)CS(=O)(=O)CCc3c(c(F)cc4[nH]ccc34)Oc3ccc(F)c(c3)-c3c(C#N)cnn32)c1)C(=O)O` (mixture of isomers) [Compound 151, (2S)-3-[3-(3-Cyano-23,29-difluoro-11,11-dimethyl-13,13-dioxo-25-oxa-13λ6-thia-5,6,20-triazapentacyclo[24.3.1.02,6.016,24.017,21]triaconta-1(30),2,4,16,18,21,23,26,28-nonaen-7-yl)phenyl]-2-methyl-propanoic Acid], the “DSLS 3D (100 μM ΔT)” value is reported as “A (an ΔTagg value less than or equal to 5 °C is marked “A”)”.
For `C[C@@H](Cc1cccc(C2CCCC(C)(C)CS(=O)(=O)CCc3c(c(F)cc4[nH]ccc34)Oc3ccc(F)c(c3)-c3nn2cc3C#N)c1)C(=O)O` (mixture of isomers) [Compound 152, (2S)-3-[3-(3-Cyano-22,28-difluoro-10,10-dimethyl-12,12-dioxo-24-oxa-12λ6-thia-5,19,30-triazapentacyclo[23.3.1.12,5.015,23.016,20]triaconta-1(29),2(30),3,15,17,20,22,25,27-nonaen-6-yl)phenyl]-2-methyl-propanoic Acid], the “DSLS 3D (100 μM ΔT)” value was “C (a value greater than 10 °C and less than or equal to 25 °C is marked “C”)”.
`C[C@H](Cc1cccc(C2NCC(F)(F)CCS(=O)(=O)CCc3c(c(F)c(F)c4[nH]ccc34)Oc3ccc(F)c(c3)-c3nc2nn3C)c1)C(=O)O` (mixture of isomers) [Compound 380, (2R)-2-Methyl-3-[3-(9,9,21,22,28-pentafluoro-3-methyl-12,12-dioxo-24-oxa-12λ6-thia-3,4,7,19,30-pentazapentacyclo[23.3.1.12,5.015,23.016,20]triaconta-1(29),2(30),4,15,17,20,22,25,27-nonaen-6-yl)phenyl]propanoic Acid] was tested, and the “DSLS 3D (100 μM ΔT)” value was “A (an ΔTagg value less than or equal to 5 °C is marked “A”)”.
`CC1(C)CS(=O)(=O)CCc2c(c(F)cc3[nH]ccc23)Oc2ccc(F)c(c2)-c2ccnn2C(c2cccc(CCC(=O)O)c2)CCO1` (single isomer, unassigned) [Compound 88, 3-[3-(23,29-Difluoro-11,11-dimethyl-13,13-dioxo-10,25-dioxa-13λ6-thia-5,6,20-triazapentacyclo[24.3.1.02,6.016,24.017,21]triaconta-1(30),2,4,16,18,21,23,26,28-nonaen-7-yl)phenyl]propanoic Acid] was tested, and the “DSLS 3D (100 μM ΔT)” value was “A (an ΔTagg value less than or equal to 5 °C is marked “A”)”.
`Cn1nc2nc1-c1cc(ccc1F)Oc1c(F)cc3[nH]ccc3c1CCS(=O)(=O)CC(C)(C)COCC2(C)c1cccc(CCC(=O)O)c1` (single isomer, unassigned) [Compound 89A, 3-[3-(22,28-difluoro-3,6,10,10-tetramethyl-12,12-dioxo-8,24-dioxa-12λ6-thia-3,4,19,30-tetrazapentacyclo[23.3.1.12,5.015,23.016,20]triaconta-1(29),2(30),4,15,17,20,22,25,27-nonaen-6-yl)phenyl]propanoic Acid] was tested, and the “DSLS 3D (100 μM ΔT)” value was “C (a value greater than 10 °C and less than or equal to 25 °C is marked “C”)”.
With `Cn1nc2nc1-c1cc(ccc1F)Oc1c(F)cc3[nH]ccc3c1CCS(=O)(=O)CC(C)(C)COCC2(C)c1cccc(CCC(=O)O)c1` (single isomer, unassigned) [Compound 89B, 3-[3-(22,28-difluoro-3,6,10,10-tetramethyl-12,12-dioxo-8,24-dioxa-12λ6-thia-3,4,19,30-tetrazapentacyclo[23.3.1.12,5.015,23.016,20]triaconta-1(29),2(30),4,15,17,20,22,25,27-nonaen-6-yl)phenyl]propanoic Acid] the “DSLS 3D (100 μM ΔT)” value was “A (an ΔTagg value less than or equal to 5 °C is marked “A”)”.
In the case of `Cn1nc2nc1-c1cc(ccc1F)Oc1c(F)cc3[nH]ccc3c1CCS(=O)(=O)CC(C)(C)CCCC2(C)c1cccc(C(O)CO)c1` (single isomer, unassigned) [Compound 90A, 1-[3-(22,28-difluoro-3,6,10,10-tetramethyl-12,12-dioxo-24-oxa-12λ6-thia-3,4,19,30-tetrazapentacyclo[23.3.1.12,5.015,23.016,20]triaconta-1(29),2(30),4,15,17,20,22,25,27-nonaen-6-yl)phenyl]ethane-1,2-diol], the “DSLS 3D (100 μM ΔT)” value is reported as “C (a value greater than 10 °C and less than or equal to 25 °C is marked “C”)”.
`Cn1nc2nc1-c1cc(ccc1F)Oc1c(F)cc3[nH]ccc3c1CCS(=O)(=O)CC(C)(C)CCCC2(C)c1cccc(C(O)CO)c1` (single isomer, unassigned) [Compound 90B, 1-[3-(22,28-difluoro-3,6,10,10-tetramethyl-12,12-dioxo-24-oxa-12λ6-thia-3,4,19,30-tetrazapentacyclo[23.3.1.12,5.015,23.016,20]triaconta-1(29),2(30),4,15,17,20,22,25,27-nonaen-6-yl)phenyl]ethane-1,2-diol] was tested, and the “DSLS 3D (100 μM ΔT)” value was “A (an ΔTagg value less than or equal to 5 °C is marked “A”)”.
`CC(Cc1cccc(C2(CNCC(F)F)CCCC(C)(C)CS(=O)(=O)CCc3c(c(F)cc4[nH]ccc34)Oc3ccc(F)c(c3)-c3nc2nn3C)c1)C(=O)O` (single isomer, unassigned) [Compound 137A, 3-[3-[6-[(2,2-difluoroethylamino)methyl]-22,28-difluoro-3,10,10-trimethyl-12,12-dioxo-24-oxa-12λ6-thia-3,4,19,30-tetrazapentacyclo[23.3.1.12,5.015,23.016,20]triaconta-1(29),2(30),4,15,17,20,22,25,27-nonaen-6-yl]phenyl]-2-methyl-propanoic Acid] was tested, and the “DSLS 3D (100 μM ΔT)” value was “C (a value greater than 10 °C and less than or equal to 25 °C is marked “C”)”.
`C[C@@H](Cc1cncc(C2(C)CCCC(C)(C)CS(=O)(=O)CCc3c(c(F)cc4[nH]ccc34)Oc3ccnc(c3)-c3nc2nn3C)c1)C(=O)O` (single isomer, unassigned) [Compound 299A] was tested, and the “DSLS 3D (100 μM ΔT)” value was “A (an ΔTagg value less than or equal to 5 °C is marked “A”)”.
In the case of `C[C@@H](Cc1cncc(C2(C)CCCC(C)(C)CS(=O)(=O)CCc3c(c(F)cc4[nH]ccc34)Oc3ccnc(c3)-c3nc2nn3C)c1)C(=O)O` (single isomer, unassigned) [Compound 299B], the “DSLS 3D (100 μM ΔT)” value is reported as “B (a value above 5 °C and less than or equal to 10 °C is marked “B”)”.
With `C[C@@H](Cc1cncc(C2(C)CCCC(C)(C)CS(=O)(=O)CCc3c(c(F)c(F)c4[nH]ccc34)Oc3ccnc(c3)-c3nc2nn3C)n1)C(=O)O` (single isomer, unassigned) [Compound 300A] the “DSLS 3D (100 μM ΔT)” value was “A (an ΔTagg value less than or equal to 5 °C is marked “A”)”.
`C[C@@H](Cc1cncc(C2(C)CCCC(C)(C)CS(=O)(=O)CCc3c(c(F)c(F)c4[nH]ccc34)Oc3ccnc(c3)-c3nc2nn3C)n1)C(=O)O` (single isomer, unassigned) [Compound 300B] was tested, and the “DSLS 3D (100 μM ΔT)” value was “A (an ΔTagg value less than or equal to 5 °C is marked “A”)”.
In the case of `Cn1nc2nc1-c1cc(ccc1F)[S+]([O-])c1c(F)cc3[nH]ccc3c1CCS(=O)(=O)CC(C)(C)CCC[C@]2(C)c1cccc([C@H](O)CO)c1` (single isomer, unassigned) [Compound 302B], the “DSLS 3D (100 μM ΔT)” value is reported as “B (a value above 5 °C and less than or equal to 10 °C is marked “B”)”.
For `Cn1nc2nc1-c1cc(ccc1F)[S+]([O-])c1c(F)c(F)c3[nH]ccc3c1CCS(=O)(=O)CC(C)(C)CCC[C@]2(C)c1cccc(CC2(C(=O)O)CC2)c1` (single isomer, unassigned) [Compound 303B], the “DSLS 3D (100 μM ΔT)” value was “A (an ΔTagg value less than or equal to 5 °C is marked “A”)”.
